Measurements from US6942963B1, “Methods for identifying treatments for neurotoxicity in Alzheimer's disease caused by β-amyloid peptides” (Massachusetts Institute of Technology, priority 1997, dated 2005).
Entries after “also recorded” stand apart in the source; their conditions may differ. Read-outs that look alike come from different tables or passages of the source. Non-standard residues stand in square brackets, D forms with d. Residues, ends and D or L forms follow the SMILES beside them.

Legend:
[1] = test system: hNT cells; experiment: Membrane depolarization of hNT cells by aggregated Aβ1-42 (DiBAC4(3) fluorescence); format: cell-based, human; settings: for % ΔF in presence of addition / Δ EM in presence of addition: aggregated Aβ1-42 20 μM plus the named addition, [Ca^2+] 2 mM, Na^+; for inhibition of membrane depolarization by aggregated Aβ1-42: simultaneous presence, separately or together, summary statement
Experimental: Changes in membrane potential were measured using the fluorescent potentiometric probe DiBAC4(3), (Molecular Probes, Inc., Eugene, Oreg.). This dye, bis-(1,3-dibutylbarbituric acid)trimethine oxonol, detects membrane depolarization, because it enters depolarized cells and binds to intracellular proteins or membranes. […] Hyperpolarization results in extrusion of the anionic dye and thus a decrease in fluorescence. Our measurements use two dyes, fura-2 and DiBAC4(3), since these dyes have excitation wavelengths that are far apart, but have similar emission wavelengths. DiBAC4(3) was added to fura-2AM loaded hNT cells at a concentration of 100 nM in Tyr2Ca. Rapidly alternating measurements of fura-2 (excited at 340 & 380 nm) and DiBAC4(3) (excited at 490 nm) were performed using emission at 516 nm. Both dyes were measured using the special “Fura2-Fluo3” filter set 7400 from Chroma Technology (Brattleboro, Vt.), a Zeiss Axiovert 100 inverted microscope and a photometry system (model “Delta Ram” from Photon Technology International, Inc., Monmouth Junction, N.J.).
The bis-oxonol dye DiBAC4(3) was used as an indicator of transmembrane electrical potential changes (Langheinrich and Daut, J. Physiol. 502:397-408, 1997) when our hNT cells were treated with, for example, the β-amyloid peptide Aβ1-42. The use of this dye enabled us to monitor groups of 5-15 neurons, rather than single cells as would be the case with patch clamping methods. We expected great variability from cell to cell, as was found in our earlier patch clamp work (Sanderson et al., Brain Res. 744:7-14, 1997). The method has been used by many laboratories for the determination of membrane potentials in different cell types. Fluorescence is increased upon membrane depolarization as more dye enters the cytosol, resulting in increased binding to proteins (Braiuner et al., Biochim. Biophys. Acta 771:[…], 1984). Partitioning of bis-oxonol dye between the plasma membrane and the cytosol follows the Nernst equation (Langheinrich and Daut, 1997). Unless otherwise indicated, all measurements were carried out in Tyrode's solution containing 2 mM Ca.
We calibrated the gross fluorescence as a function of membrane potential by treating a culture of hNT neurons, bathed in Tyrode's 2Ca buffer with the usual 3 mM K^+, containing 97 nM DiBAC4(3), with Tyrode's 2Ca buffer containing 40 mM KCl. We measured the gross fluorescence at excitation=490 nm and emission=510 nm for the depolarization by KCl and for depolarization by the Aβ1-42 peptide. We used the formula proposed by Langheinrich and Daut, 1997: % ΔF=(1−Fmin/Fmax)*100=ΔEMmV
where Fmin=fluorescence before treatment, Fmax=fluorescence during treatment, ΔEM mV is the change in membrane potential brought about by the treatment. The calculation based on the expected depolarization by changing from 3 mM KCl to 40 MM KCl gave a value of ΔEM=3.8 mV/1% ΔF.
Groups of hNT neuronal cells (5-17) were exposed to Aβ1-42 (20 μM) that had been incubated at 37° C. for 48 hours; 97 nM DiBAC4(3) was present. Fluorescence was measured as described above; Ex=490 nm, Em=510 nm.

[2] = test system: voltage-gated calcium channels; experiment: Previous patch-clamp experiments on β-amyloid peptide calcium influx; format: cell-based
[3] = test system: βAP25-35-induced calcium influx, hNT cells; experiment: βAP25-35-induced calcium influx in hNT cells: effect of channel antagonists and decoy peptides; format: cell-based, human; settings: for effect on increase in internal calcium concentration due to βAP25-35: decoy peptide mixed with βAP25-35 at ratio 1:1 (20 μM+20 μM), hNT cells; for effect on βAP25-35 calcium influx at molar ratio: filtered stocks
[4] = test system: βAP1-42-induced calcium influx, hNT cells; experiment: βAP1-42 (Aβ1-42) aggregate-induced calcium influx in hNT cells: effect of decoy peptides and channel blockers; format: cell-based, human; settings: for inhibition of calcium influx caused by aggregated Aβ1-42: summary statement, concentration not given; for effect on βAP1-42 calcium influx: βAP1-42 25 μM coincubated with equimolar decoy peptide at 37° C. for 44 hours
[5] = test system: hNT cells; experiment: Internal calcium concentration [Ca2+]int in hNT cells (fura-2) on exposure to β-amyloid peptide or test agent alone; format: cell-based, human; settings: hNT cells, decoy peptide alone at 20 μM, filtered stocks, Tyrode's/2 mM Ca
[6] = format: physicochemical; settings: water
[7] = molecular target: T1, βAP1-42 (Homo sapiens, UniProt P05067); experiment: Aggregation rate of βAP1-42 by light scattering at 500 nm; format: biochemical; settings: decoy peptide at 1:1 molar ratio, Tyrode's/2 mM Ca^2+, light scattering 500 nm
T1 construct: βAP1-42 (Aβ1-42); purchased Quality Control Biochemicals; host or cells: synthetic peptide

[8] = molecular target: T2, βAP25-35 (Homo sapiens, UniProt P05067); experiment: Aggregation rate of βAP25-35 by light scattering at 500 nm; format: biochemical; settings: decoy peptide at approximately equimolar concentration, Tyrode's/2 mM Ca^2+, light scattering 500 nm
T2 construct: made in house; host or cells: chemical peptide synthesis (BioPolymers Laboratory, MIT), HPLC purified

T1 sequence (P05067 672-713): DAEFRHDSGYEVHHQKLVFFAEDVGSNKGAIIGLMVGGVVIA

Row | Compound | inhibition of calcium influx caused by aggregated Aβ1-42 [4] | % ΔF in presence of addition [1] | Δ EM in presence of addition [1] | inhibition of membrane depolarization by aggregated Aβ1-42 [1] | effect of decoy peptide by itself on cytosolic calcium concentrations [5] | effect on increase in internal calcium concentration due to βAP25-35 [3] | effect on βAP1-42 calcium influx ([4]; hNT cells) | effect on aggregation rate of βAP25-35 [8] | also measured
1 | [Cl][Cd][Cl] [cadmium chloride] | – | – | – | – | – | – | – | – | effect on membrane depolarization by aggregated Aβ1-42 [1]: did not prevent membrane depolarization; block of β-amyloid peptide calcium influx [2]: did not block the calcium influx
2 | N#Cc1cc2c(cc1[N+](=O)[O-])=NC(=O)C(=O)N=2 [CNQX, 6-cyano-7-nitroquinoxaline-2,3-dione] | inhibited | 17.0% | +64.6 mV | not inhibited | – | – | – | – | [Ca^2+]int when antagonist added after βAP25-35 exposure ([3]; cells first exposed to 21 μM βAP25-35 (270% of control), then βAP25-35 plus CNQX 22 μM): fell to control levels; block of calcium influx into hNT neuronal cells caused by βAP25-35 ([3]; concentration not stated): can be blocked; effect on βAP25-35-induced calcium influx ([3]; βAP25-35 21 μM, CNQX at 22 μM, applied together): completely prevented; effect on calcium influx / cytosolic calcium caused by aggregated Aβ1-42 ([4]; hNT cells, aggregated Aβ1-42, 20 μM CNQX added after desensitization): completely inhibited; also recorded: lowers the remaining calcium level to the original control value; effect on membrane depolarization (DiBAC4(3) fluorescence plateau) by aggregated Aβ1-42 ([1]; hNT cells, CNQX (20 μM) added after Aβ1-42aggr): little change in fluorescence; also recorded: remained unchanged; also recorded: did not significantly change fluorescence
3 | CC[C@@H](C)[C@@H](N)C(=O)N[C@H](C)C(=O)N[C@H](C)C(=O)NCC(=O)N[C@@H](C(=O)N[C@@H](C(=O)NCC(=O)NCC(=O)NCC(=O)O)[C@H](C)O)[C@H](C)CC [DP1, ^+NH3-IAAGITGGG-COO^−] (H-[dI][dA][dA]G[dI][dT]GGG-OH) | – | – | – | – | raise cytosolic calcium concentrations somewhat | reduced or abolished the increase in the internal calcium concentration | – | – | solubility [6]: water soluble
4 | ^+NH3.T.P.I.R^+.T.P.A.P.A.COO^− (H-[dT][dP][dI][dR][dT][dP][dA][dP][dA]-OH; also: modified) [DP16] | – | – | – | – | – | – | reduced or abolished the effect of βAP1-42 on the calcium influx | reduced the aggregation rate of βAP25-35 | reduction of aggregation rate of βAP1-42 [7]: about 50%
5 | D-AP5 | inhibited | 10.4% | +39.5 mV | not inhibited | – | – | – | – | effect on calcium influx caused by aggregated Aβ1-42 ([4]; hNT cells, aggregated 20 μM Aβ1-42, D-AP5 50 μM): largely, but not completely, abolished calcium influx; also recorded: does inhibit calcium influx; effect on membrane depolarization by aggregated Aβ1-42 ([1]; hNT cells, D-AP5 50 μM): did not interfere with the depolarization phenomenon; also recorded: does not block membrane depolarization
6 | ^+NH3-TVIR^+TIAAA-COO^− (TVIRTIAAA) [DP8] | – | – | – | – | no effect on cytosolic calcium concentrations | reduced or abolished the increase in the internal calcium concentration | reduced or abolished the effect of βAP1-42 on the calcium influx | did not reduce the aggregation rate of βAP25-35 | effect on βAP25-35 calcium influx at molar ratio ([3]; DP8:βAP25-35 0.2:1 (5 mM DP8+20 mM βAP25-35)): modestly reduced; effect on βAP25-35 calcium influx at molar ratio ([3]; DP8:βAP25-35 1:1 (10 mM DP8+10 mM βAP25-35)): reduce or abolish the effect of the β-amyloid peptide; effect on βAP25-35 calcium influx at molar ratio ([3]; DP8:βAP25-35 2:1 (20 mM DP8+11 mM βAP25-35)): reduce or abolish the effect of the β-amyloid peptide
